In US20210253598A1, “ARYL ANNULATED MACROCYCLIC INDOLE DERIVATIVES” (priority 2017, published 2021):
Structures can show the parent of a compound that is named as a salt. Where two headings read alike, the source gives them in different places.

Key:
MCL-1 = MCL-1 (Homo sapiens, UniProt Q07820, K194A/K197A/R201A); assay: Protein-protein interaction assay MCL-1/Noxa BH3 peptide, TR-FRET (MCL-1 assay, Assay 1); assay type: binding; conditions: MCL-1 Assay [M] (median), MBP-MCL-1 / Noxa BH3 peptide
MCL-1, sequence (Q07820 173-321 K194A/K197A/R201A, looked up): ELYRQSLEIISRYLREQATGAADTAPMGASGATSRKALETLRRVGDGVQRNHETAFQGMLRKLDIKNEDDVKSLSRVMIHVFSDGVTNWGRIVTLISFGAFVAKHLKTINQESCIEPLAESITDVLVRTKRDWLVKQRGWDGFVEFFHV
Experimental: The dose-dependent inhibition by the compounds described in this invention of the interaction between MCL-1 and the BH3 domain of Noxa (both human) was determined using a steady state binding competition assay with time-resolved fluorescence energy transfer (TR-FRET) readout. For that purpose MCL-1 (amino acids 173-321, N-terminal fused to Maltose Binding Protein (MBP), SEQ ID 1) and a synthetic Noxa BH3-derived peptide of sequence Biotin-PEG2-PEG2-PAELEVE-Nva-[…]-amide (SEQ ID 2) served as protein receptor and tracer ligand respectively. The MBP-MCL-1 was purchased from Beryllium (Bedford, Mass., USA). The expression and purification of this protein construct has been described elsewhere (DOI:10.1371/journal.pone.0125010). The Noxa BH3-derived peptide can be obtained from e.g. Biosyntan (Berlin, Germany).
For that, 100-fold concentrated DMSO solutions were prepared by serial dilutions (1:3.4) of a 2 mM stock solution in a clear, 384-well microtiter plate (Greiner Bio-One, Frickenhausen, Germany). From there, 50 nl were transferred in a dark test plate (Greiner Bio-One, Frickenhausen, Germany). The assay was initiated by addition of 2 μl of a 2,5-fold concentrated MBP-MCL-1 solution (usually for a 1 nM end concentration in 5 μl reaction volume) in aqueous assay buffer [50 mM Tris/HCl pH 7, 100 mM sodium chloride (NaCl), 50 mM potassium fluoride (KF), 0.005% Tween-20, 2 mM DTT, 0.1% bovine gamma globulin (BGG)] to the compounds in the assay plate. This was followed by a 10-minute incubation step at 22° C. for pre-equilibration of the putative complex between MBP-MCL-1 and the compounds.
The mixture was incubated in the dark for one hour at 22° C. and then overnight at 4° C. The formation of MCL-1/Noxa complexes was determined by measuring the resonance energy transfer of the anti-MBP-Eu-cryptate antibody to the streptavidin-XL665 present in the reaction.
The resulting data (ratio) were normalized, taking 0% inhibition as the mean value of control measurements (usually 32 data points) where all reagents were included. In this case 50 nl DMSO were used instead of compounds. […] IC50 values were determined by regression analysis based on a 4 parameter equation (minimum, maximum, IC50, Hill; Y=Max+(Min−Max)/(1+(X/IC50)^Hill) using the Screener Software (Genedata).

SUDHL5 [1] = assay: Induction of caspase-3/7 activity in SUDHL5 cells (Assay 4); assay type: cell-based; conditions: SUDHL5, 3 hours treatment, Caspase-Glo 3/7, median, read-out: Caspase SUDHL5 [M] (median)
Experimental: (§1) Induction of Caspase-3/7 Activity Upon Treatment of Cells with Selected Compounds
(§2) The BH3-domain of MCL-1 sequesters pro-apoptotic proteins, thereby inhibiting apoptosis. In contrast, MCL-1 inhibitors are expected to antagonize this effect leading to an increase in apoptosis, which can be determined by measuring the activity of caspase-3/7.
(§3) The activity of caspase-3/7 was determined in DLBCL (Diffuse large B-cell lymphoma) cell lines (SUDHL5 and SUDHL10) upon treatment with different compounds, using the Caspase-Glo® 3/7 reagent from Promega (G8092).
(§4) As a control, medium without cells was also added to the plate. Cells were incubated in a humidified incubator at 37° C. overnight.
(§5) Rim wells were excluded. The cells were incubated for 3 hours in a humidified incubator at 37° C. After this incubation, 30 μl of Caspase-Glo® 3/7 reagent (Promega G8092) was added to each well using the Multidrop Combi Reagent Dispenser, followed by 1 hour incubation at 37° C. Finally, luminescence was read at 0.1 ms, with a gain of 3000 using the PHERAstar FS microplate reader (BMG Labtech).
(§6) For the evaluation of the results, the background measured with “medium-only” was subtracted from all other values. Then, the values were normalized to DMSO-only treated cells (every value was divided by the mean of the DMSO control).

SUDHL10 [2] = assay: Induction of caspase-3/7 activity in SUDHL10 cells (Assay 4); assay type: cell-based; conditions: SUDHL10, 3 hours treatment, Caspase-Glo 3/7, median, read-out: Caspase SUDHL10 [M] (median)
Experimental: as §1, §2, §3, §4, §5, §6

SUDHL5 [3] = assay: Induction of cytotoxicity in SUDHL5 cells, CellTiter-Glo (Assay 6); assay type: cell-based
Experimental: (§7) Induction of Cytotoxicity Upon Treatment of Cells with Selected Compounds
(§8) In principle, compounds that induce apoptosis will concomitantly induce cell cytotoxicity. Therefore, cytotoxicity assays were run in parallel in SUDHL5 and SUDHL10 cells.
(§9) As a control, medium without cells was also added to the plate. Cells were incubated in a humidified incubator at 37° C. overnight. […] Rim wells were excluded. The cells were incubated for 5 hours in a humidified incubator at 37° C. After this incubation, 30 μl of CellTiter-Glo® Luminescent Cell Viability reagent (Promega, G7573) was added to each well using the Multidrop Combi Reagent Dispenser, followed by 15 minutes incubation on a shaker at room temperature. Finally, luminescence was read at 0.1 ms, with a gain of 3000 using the PHERAstar FS microplate reader (BMG Labtech).

SUDHL10 [4] = assay: Induction of cytotoxicity in SUDHL10 cells, CellTiter-Glo (Assay 6); assay type: cell-based
Experimental: as §7, §8, §9

[5] = SUDHL5, 5 hours incubation, median, read-out: Cytotox SUDHL5 [M] (median)
[6] = SUDHL10, 5 hours incubation, median, read-out: Cytotox SUDHL10 [M] (median)
[7] = Homo sapiens, SU-DHL10, 5 h, SUDHL10, 5 hours incubation, median, read-out: Cytotox SUDHL10 [M] (median)

| Compound | IC50 (MCL-1) [M] | EC50 (SUDHL5 [1]) [M] | EC50 (SUDHL10 [2]) [M] | EC50 (SUDHL5 [1]; Homo sapiens, SU-DHL-5, 3 h) [M] | EC50 (SUDHL10 [2]; Homo sapiens, SU-DHL10, 3 h) [M] | IC50 (SUDHL5 [3]; [5]) [M] | IC50 (SUDHL10 [4]; [6]) [M] | IC50 (SUDHL10 [4]; [7]) [M] | IC50 (SUDHL5 [3]; read-out: Cytotox SUDHL5 [M] (median), SUDHL5, 5 hours incubation) | IC50 (SUDHL10 [4]; read-out: Cytotox SUDHL10 [M] (median), SUDHL10, 5 hours incubation) |
| --- | --- | --- | --- | --- | --- | --- | --- | --- | --- | --- |
| Cc1c2c(nn1C)CN(C(=O)NC1CCOCC1)Cc1ccccc1Cn1c(C(=O)O)c(CCCOc3cccc4ccccc34)c3cccc-2c31 (single isomer, unassigned; enantiomer 1) [Example 25, (+)-4,5-Dimethyl-17-[3-(naphthalen-1-yloxy)propyl]-8-(tetrahydro-2H-pyran-4-ylcarbamoyl)-7,8,9,14-tetrahydro-5H-indolo[1,7-bc]pyrazolo[4,3-e][2,8]benzodiazacycloundecine-16-carboxylic Acid (Enantiomer 1)] | 2.6e-07 |  |  | > 3.3e-05 | > 3.3e-05 | > 3.3e-05 |  | > 3.3e-05 |  |  |
| Cc1c2c(nn1C)CN(S(=O)(=O)c1ccc(N3CCOCC3)nc1)Cc1ccccc1Cn1c(C(=O)O)c(CCCOc3cccc4ccccc34)c3cccc-2c31 (single isomer, unassigned; enantiomer 2) [Example 19, (−)-4,5-Dimethyl-8-{[6-(morpholin-4-yl)pyridin-3-yl]sulfonyl}-17-[3-(naphthalen-1-yloxy)propyl]-7,8,9,14-tetrahydro-5H-indolo[1,7-bc]pyrazolo[4,3-e][2,8]benzodiazacycloundecine-16-carboxylic Acid (Enantiomer 2)] | 9.4e-07 | 1.7e-05 | > 3.3e-05 |  |  | 2.3e-05 | > 3.3e-05 |  |  |  |
| Cc1c2c(nn1C)CNCc1ccccc1Cn1c(C(=O)O)c(CCCOc3cccc4ccccc34)c3cccc-2c31 (single isomer, unassigned; enantiomer 2) [Example 13, 4,5-Dimethyl-17-[3-(naphthalen-1-yloxy)propyl]-7,8,9,14-tetrahydro-5H-indolo[1,7-bc]pyrazolo-[4,3-e][2,8]benzodiazacycloundecine-16-carboxylic acid-Trifluoroacetic Acid Salt (Enantiomer 2)] | 1.7e-07 | 1.4e-05 | > 3.3e-05 |  |  |  |  |  | 1.7e-05 | 2.5e-05 |
| Cc1c2c(nn1C)COCc1ccccc1Cn1c(C(=O)O)c(CCCOc3cccc4ccccc34)c3ccc(Cl)c-2c31 (single isomer, unassigned; enantiomer 2) [Example 38, (+)-3-Chloro-4,5-dimethyl-17-[3-(naphthalen-1-yloxy)propyl]-5,7,9,14-tetrahydroindolo[7,1-fg]pyrazolo[3,4-d][2,8]benzoxazacycloundecine-16-carboxylic Acid (Enantiomer 2)] | 7.1e-09 | 1.7e-06 | 1.1e-05 |  |  | 2.3e-06 | 6.8e-06 |  |  |  |
| Cc1c2c(nn1C)CN(C(=O)NCC1CCOCC1)Cc1ccccc1Cn1c(C(=O)O)c(CCCOc3cccc4ccccc34)c3cccc-2c31 (single isomer, unassigned; enantiomer 1) [Example 28, (+)-4,5-Dimethyl-17-[3-(naphthalen-1-yloxy)propyl]-8-[(tetrahydro-2H-pyran-4-ylmethyl)carbamoyl]-7,8,9,14-tetrahydro-5H-indolo[1,7-bc]pyrazolo[4,3-e][2,8]benzodiazacycloundecine-16-carboxylic Acid (Enantiomer 1)] | 2.8e-07 | > 3.3e-05 |  |  | > 3.3e-05 | > 3.3e-05 |  | > 3.3e-05 |  |  |

The remaining compounds from weak to strong by IC50 (MCL-1), led by results:

| IC50 (MCL-1) [M] | EC50 (SUDHL5 [1]) [M] | EC50 (SUDHL10 [2]) [M] | EC50 (SUDHL5 [1]; Homo sapiens, SU-DHL-5, 3 h) [M] | EC50 (SUDHL10 [2]; Homo sapiens, SU-DHL10, 3 h) [M] | Compound | IC50 (SUDHL5 [3]; [5]) [M] | IC50 (SUDHL10 [4]; [6]) [M] | IC50 (SUDHL10 [4]; [7]) [M] | IC50 (SUDHL5 [3]; read-out: Cytotox SUDHL5 [M] (median), SUDHL5, 5 hours incubation) | IC50 (SUDHL10 [4]; read-out: Cytotox SUDHL10 [M] (median), SUDHL10, 5 hours incubation) |
| --- | --- | --- | --- | --- | --- | --- | --- | --- | --- | --- |
| 3.9e-08 | 4.2e-06 | 1.2e-05 |  |  | Cc1c2c(nn1C)CN(C(=O)CC1CCOCC1)Cc1ccccc1Cn1c(C(=O)O)c(CCCOc3cccc4ccccc34)c3cccc-2c31 (single isomer, unassigned; enantiomer 2) [Example 23, (+)-4,5-Dimethyl-17-[3-(naphthalen-1-yloxy)propyl]-8-(tetrahydro-2H-pyran-4-ylacetyl)-7,8,9,14-tetrahydro-5H-indolo[1,7-bc]pyrazolo[4,3-e][2,8]benzodiazacycloundecine-16-carboxylic Acid (Enantiomer 2)] | 4.4e-06 | 1.1e-05 |  |  |  |
| 3.8e-08 | 1.8e-05 | > 3.3e-05 |  |  | Cc1c2c(nn1C)CN(C(=O)NC1CCOCC1)Cc1ccccc1Cn1c(C(=O)O)c(CCCOc3cccc4ccccc34)c3cccc-2c31 (single isomer, unassigned; enantiomer 2) [Example 26, (−)-4,5-Dimethyl-17-[3-(naphthalen-1-yloxy)propyl]-8-(tetrahydro-2H-pyran-4-ylcarbamoyl)-7,8,9,14-tetrahydro-5H-indolo[1,7-bc]pyrazolo[4,3-e][2,8]benzodiazacycloundecine-16-carboxylic Acid (Enantiomer 2)] | 1.6e-05 | > 3.3e-05 |  |  |  |
| 3e-08 | 1e-05 | 2.3e-05 |  |  | Cc1c2c(nn1C)CN(C(=O)NCC1CCOCC1)Cc1ccccc1Cn1c(C(=O)O)c(CCCOc3cccc4ccccc34)c3cccc-2c31 (single isomer, unassigned; enantiomer 2) [Example 29, (−)-4,5-Dimethyl-17-[3-(naphthalen-1-yloxy)propyl]-8-[(tetrahydro-2H-pyran-4-ylmethyl)carbamoyl]-7,8,9,14-tetrahydro-5H-indolo[1,7-bc]pyrazolo[4,3-e][2,8]benzodiazacycloundecine-16-carboxylic Acid (Enantiomer 2)] | 1.4e-05 | 2.3e-05 |  |  |  |
| 2.9e-08 | 9.2e-07 | 5.2e-06 |  |  | Cc1c2c(nn1C)CN(S(=O)(=O)c1ccc(N3CCOCC3)nc1)Cc1ccccc1Cn1c(C(=O)O)c(CCCOc3cccc4ccccc34)c3cccc-2c31 (single isomer, unassigned; enantiomer 1) [Example 18, (+)-4,5-Dimethyl-8-{[6-(morpholin-4-yl)pyridin-3-yl]sulfonyl}-17-[3-(naphthalen-1-yloxy)propyl]-7,8,9,14-tetrahydro-5H-indolo[1,7-bc]pyrazolo[4,3-e][2,8]benzodiazacycloundecine-16-carboxylic Acid (Enantiomer 1)] | 1.4e-06 | 3.8e-06 |  |  |  |
